Patent US20230398130A1, “METHODS AND COMPOSITIONS FOR DIFFERENTIATING STEM CELLS” (Massachusetts Institute of Technology, priority 2020, published 2023)

What was measured:
ISC-enriched organoids [1] = assay: Primary screen, 384-well 2.5-D organoid differentiation (ENR+CD, 6 days): carbachol-induced lysozyme secretion (LYZ.S); assay type: cell-based, murine; conditions: for Dose.FC.LYZ.S / Z.LYZ.S / SSMD.LYZ.S: primary screen; for Dose.FC.LYZ.S: FC vs plate median; for Z.LYZ.S: standard z score; for SSMD.LYZ.S: strictly standardized mean difference
Description: (§1) High-throughput screening.

ISC-enriched organoids [2] = assay: Primary screen, 384-well 2.5-D organoid differentiation (ENR+CD, 6 days, Target Selective Inhibitor Library, vs whole-plate median): ATP (CellTiter-Glo 3D, CTG); conditions: for Dose.FC.CTG: FC vs plate median; for Z.CTG: standard z score of FC; for SSMD.CTG: strictly standardized mean difference
ISC-enriched organoids [3] = assay: Primary screen, 384-well 2.5-D organoid differentiation (ENR+CD, 6 days): basal lysozyme secretion (LYZ.NS); assay type: cell-based, murine; conditions: for Dose.FC.LYZ.NS: FC vs plate median; for Z.LYZ.NS: standard z score of FC; for SSMD.LYZ.NS: strictly standardized mean difference
Description: as §1

[4] = 1st of the 4 dose lines of the treatment (dose not given)
[5] = 2nd of the 4 dose lines of the treatment (dose not given)
[6] = 3rd of the 4 dose lines of the treatment (dose not given)
[7] = 4th of the 4 dose lines of the treatment (dose not given)
[8] = primary screen, 1st of the 4 dose lines of the treatment (dose not given)
[9] = primary screen, 2nd of the 4 dose lines of the treatment (dose not given)
[10] = primary screen, 3rd of the 4 dose lines of the treatment (dose not given)
[11] = primary screen, 4th of the 4 dose lines of the treatment (dose not given)
[12] = dose 0.08 uM (1st of 4 lines per treatment; dose not printed in this part)
[13] = dose 0.40 uM (2nd of 4 lines per treatment; dose not printed in this part)
[14] = dose 2.00 uM (3rd of 4 lines per treatment; dose not printed in this part)
[15] = dose 10.00 uM (4th of 4 lines per treatment; dose not printed in this part)
[16] = primary screen, dose 0.08 uM, ENR+CD 6 days
[17] = primary screen, dose 0.40 uM, ENR+CD 6 days
[18] = primary screen, dose 2.00 uM, ENR+CD 6 days
[19] = primary screen, dose 10.00 uM, ENR+CD 6 days

Q: `O=[N+]([O-])C=Cc1ccc2c(c1)OCO2` was tested. Which Dose.FC.LYZ.S (ISC-enriched organoids [1]; Dose 0.08 uM) did it give?
A: 0.076 log 2 fold change

Q: What about the Dose.FC.LYZ.S (ISC-enriched organoids [1]; Dose 0.40 uM) of the same compound?
A: 0.100 log 2 fold change

Q: What about the Dose.FC.LYZ.S (ISC-enriched organoids [1]; Dose 2.00 uM) of the same compound?
A: 0.019 log 2 fold change

Q: What about the Dose.FC.LYZ.S (ISC-enriched organoids [1]; Dose 10.00 uM) of the same compound?
A: −0.179 log 2 fold change

Q: What about the Z.LYZ.S (ISC-enriched organoids [1]; [4]) of the same compound?
A: 0.493

Q: What about the Z.LYZ.S (ISC-enriched organoids [1]; [5]) of the same compound?
A: 0.648

Q: What about the Z.LYZ.S (ISC-enriched organoids [1]; [6]) of the same compound?
A: 0.124

Q: What about the Z.LYZ.S (ISC-enriched organoids [1]; [7]) of the same compound?
A: −1.157

Q: And the SSMD.LYZ.S (ISC-enriched organoids [1]; [4])?
A: 0.451

Q: What about the SSMD.LYZ.S (ISC-enriched organoids [1]; [5]) of the same compound?
A: 0.331

Q: What about the SSMD.LYZ.S (ISC-enriched organoids [1]; [6]) of the same compound?
A: 0.073

Q: What about the SSMD.LYZ.S (ISC-enriched organoids [1]; [7]) of the same compound?
A: −0.676

Q: What about the Dose.FC.CTG (ISC-enriched organoids [2]; Dose 0.08 uM, primary screen) of the same compound?
A: −0.016 log 2 fold change

Q: What about the Z.CTG (ISC-enriched organoids [2]; Dose 0.08 uM) of the same compound?
A: −0.037

Q: What about the Dose.FC.CTG (ISC-enriched organoids [2]; Dose 0.40 uM, primary screen) of the same compound?
A: 0.061 log 2 fold change

Q: What about the Z.CTG (ISC-enriched organoids [2]; Dose 0.40 uM) of the same compound?
A: 0.146

Q: And the Dose.FC.CTG (ISC-enriched organoids [2]; Dose 2.00 uM, primary screen)?
A: 0.062 log 2 fold change

Q: What about the Z.CTG (ISC-enriched organoids [2]; Dose 2.00 uM) of the same compound?
A: 0.148

Q: And the Dose.FC.CTG (ISC-enriched organoids [2]; Dose 10.00 uM, primary screen)?
A: −0.197 log 2 fold change

Q: And the Z.CTG (ISC-enriched organoids [2]; Dose 10.00 uM)?
A: −0.469

Q: What about the SSMD.CTG (ISC-enriched organoids [2]; [8]) of the same compound?
A: −0.026

Q: What about the SSMD.CTG (ISC-enriched organoids [2]; [9]) of the same compound?
A: 0.148

Q: What about the SSMD.CTG (ISC-enriched organoids [2]; [10]) of the same compound?
A: 0.166

Q: And the SSMD.CTG (ISC-enriched organoids [2]; [11])?
A: −0.338

Q: What about the Dose.FC.LYZ.NS (ISC-enriched organoids [3]; Dose 0.08 uM, primary screen) of the same compound?
A: 0.057 log 2 fold change

Q: And the Z.LYZ.NS (ISC-enriched organoids [3]; Dose 0.08 uM)?
A: 0.499

Q: What about the Dose.FC.LYZ.NS (ISC-enriched organoids [3]; Dose 0.40 uM, primary screen) of the same compound?
A: −0.010 log 2 fold change

Q: And the Z.LYZ.NS (ISC-enriched organoids [3]; Dose 0.40 uM)?
A: −0.088

Q: And the Dose.FC.LYZ.NS (ISC-enriched organoids [3]; Dose 2.00 uM, primary screen)?
A: 0.040 log 2 fold change

Q: And the Z.LYZ.NS (ISC-enriched organoids [3]; Dose 2.00 uM)?
A: 0.347

Q: What about the Dose.FC.LYZ.NS (ISC-enriched organoids [3]; Dose 10.00 uM, primary screen) of the same compound?
A: −0.150 log 2 fold change

Q: What about the Z.LYZ.NS (ISC-enriched organoids [3]; Dose 10.00 uM) of the same compound?
A: −1.307

Q: And the SSMD.LYZ.NS (ISC-enriched organoids [3]; [8])?
A: 0.518

Q: What about the SSMD.LYZ.NS (ISC-enriched organoids [3]; [9]) of the same compound?
A: −0.082

Q: And the SSMD.LYZ.NS (ISC-enriched organoids [3]; [10])?
A: 0.270

Q: And the SSMD.LYZ.NS (ISC-enriched organoids [3]; [11])?
A: −0.670

Q: Which results are given for `O=C(O)C(Cc1ccccc1[N+](=O)[O-])=NNc1nc(-c2ccc(Cl)c(Cl)c2)cs1` (mixture of isomers) [4EGI-1]?
A: SSMD.LYZ.S_Rep (strictly standardized mean difference) (ISC-enriched organoids [1]; [12]): −0.264; Z.LYZ.S (standard z score) (ISC-enriched organoids [1]; [12]): −0.236; SSMD.LYZ.S_Rep (strictly standardized mean difference) (ISC-enriched organoids [1]; [13]): 0.326; Z.LYZ.S (standard z score) (ISC-enriched organoids [1]; [13]): 0.352; SSMD.LYZ.S_Rep (strictly standardized mean difference) (ISC-enriched organoids [1]; [14]): −0.328; Z.LYZ.S (standard z score) (ISC-enriched organoids [1]; [14]): −0.380; SSMD.LYZ.S_Rep (strictly standardized mean difference) (ISC-enriched organoids [1]; [15]): 0.189; Z.LYZ.S (standard z score) (ISC-enriched organoids [1]; [15]): 0.366; Dose.FC.LYZ.S (ISC-enriched organoids [1]; dose 0.08 uM, ENR+CD 6 days): −0.037 log 2 fold change; Dose.FC.LYZ.S (ISC-enriched organoids [1]; dose 0.40 uM, ENR+CD 6 days): 0.054 log 2 fold change; Dose.FC.LYZ.S (ISC-enriched organoids [1]; dose 2.00 uM, ENR+CD 6 days): −0.059 log 2 fold change; Dose.FC.LYZ.S (ISC-enriched organoids [1]; dose 10.00 uM, ENR+CD 6 days): 0.057 log 2 fold change; SSMD.CTG_Rep (strictly standardized mean difference) (ISC-enriched organoids [2]; [12]): −0.352; SSMD.CTG_Rep (strictly standardized mean difference) (ISC-enriched organoids [2]; [13]): −0.158; SSMD.CTG_Rep (strictly standardized mean difference) (ISC-enriched organoids [2]; [14]): 0.407; SSMD.CTG_Rep (strictly standardized mean difference) (ISC-enriched organoids [2]; [15]): −0.283; Dose.FC.CTG (ISC-enriched organoids [2]; [16]): −0.160 log 2 fold change; Z.CTG (ISC-enriched organoids [2]; primary screen, dose 0.08 uM): −0.383; Dose.FC.CTG (ISC-enriched organoids [2]; [17]): −0.131 log 2 fold change; Z.CTG (ISC-enriched organoids [2]; primary screen, dose 0.40 uM): −0.314; Dose.FC.CTG (ISC-enriched organoids [2]; [18]): 0.127 log 2 fold change; Z.CTG (ISC-enriched organoids [2]; primary screen, dose 2.00 uM): 0.304; Dose.FC.CTG (ISC-enriched organoids [2]; [19]): −0.109 log 2 fold change; Z.CTG (ISC-enriched organoids [2]; primary screen, dose 10.00 uM): −0.261; SSMD.LYZ.NS_Rep (strictly standardized mean difference) (ISC-enriched organoids [3]; [12]): 0.378; SSMD.LYZ.NS_Rep (strictly standardized mean difference) (ISC-enriched organoids [3]; [13]): 0.264; SSMD.LYZ.NS_Rep (strictly standardized mean difference) (ISC-enriched organoids [3]; [14]): 0.252; SSMD.LYZ.NS_Rep (strictly standardized mean difference) (ISC-enriched organoids [3]; [15]): −0.257; Dose.FC.LYZ.NS (ISC-enriched organoids [3]; [16]): 0.110 log 2 fold change; Z.LYZ.NS (ISC-enriched organoids [3]; primary screen, dose 0.08 uM): 0.956; Dose.FC.LYZ.NS (ISC-enriched organoids [3]; [17]): 0.036 log 2 fold change; Z.LYZ.NS (ISC-enriched organoids [3]; primary screen, dose 0.40 uM): 0.315; Dose.FC.LYZ.NS (ISC-enriched organoids [3]; [18]): 0.069 log 2 fold change; Z.LYZ.NS (ISC-enriched organoids [3]; primary screen, dose 2.00 uM): 0.597; Dose.FC.LYZ.NS (ISC-enriched organoids [3]; [19]): −0.034 log 2 fold change; Z.LYZ.NS (ISC-enriched organoids [3]; primary screen, dose 10.00 uM): −0.300
